Reference: ChEMBL document CHEMBL5303304, “EUbOPEN Chemogenomics Library - IncuCyte” (2023)
Where “and” joins values, the source holds several entries; their conditions need not be identical. Equal entries are not always repeated.

Experiments:
Type in all cases: toxicity, cell-based
HEK-293T = experiment: Incucyte cell viability with HEK293T; details: human, 10 µM, compound concentration 10 uM
Fibroblast = experiment: Incucyte cell viability with human fibroblast; details: 10 µM, compound concentration 10 uM
U2OS = experiment: Incucyte cell viability with U2OS; details: human, 10 µM, compound concentration 10 uM
Note: unitless GR value; below 1 slowed growth and below 0 cell loss.

Structure (SMILES) | Growth Rate (HEK-293T; 6 h, replicate number 1) | Growth Rate (HEK-293T; 6 h, replicate number 2) | Growth Rate (HEK-293T; 12 h, replicate number 1) | Growth Rate (HEK-293T; 12 h, replicate number 2) | Growth Rate (HEK-293T; 18 h, replicate number 1) | Growth Rate (HEK-293T; 18 h, replicate number 2) | Growth Rate (HEK-293T; 24 h, replicate number 1) | Growth Rate (HEK-293T; 24 h, replicate number 2) | Growth Rate (Fibroblast; 0 h, replicate number 2) | Growth Rate (Fibroblast; 12 h, replicate number 2) | Growth Rate (Fibroblast; 24 h, replicate number 1) | Growth Rate (U2OS; 6 h, replicate number 1) | Growth Rate (U2OS; 12 h, replicate number 2) | Growth Rate (U2OS; 24 h, replicate number 1) | Growth Rate (HEK-293T; 0 h, replicate number 1) | Growth Rate (HEK-293T; 0 h, replicate number 2) | Growth Rate (Fibroblast; 24 h, replicate number 2) | Growth Rate (U2OS; 0 h, replicate number 2) | Growth Rate (U2OS; 6 h, replicate number 2) | Growth Rate (U2OS; 24 h, replicate number 2) | further results
CCOCCn1cc(C(=O)Nc2ccc(-n3nc(-c4cccnc4)cc3C(F)(F)F)cn2)ccc1=O [BI 1935] | 0.1 | -0.06 | 0.36 | 0.27 | 0.41 | 0.43 | 0.48 | 0.51 | -0.02 | 0.65 | 0.78 | 0.75 | 0.89 | 0.66 |  |  |  |  |  |  | Growth Rate (Fibroblast; 6 h, replicate number 2): 0.1; Growth Rate (Fibroblast; 12 h, replicate number 1): 0.59; Growth Rate (Fibroblast; 18 h, replicate number 1): 0.83; Growth Rate (U2OS; 12 h, replicate number 1): 0.52; Growth Rate (U2OS; 18 h, replicate number 1): 0.7
O=C(Nc1ccc(-n2nc(-c3cccnc3)cc2C(F)(F)F)cn1)c1ccc(-c2ccccc2)c(F)c1 [BI 2049] |  |  |  |  |  |  |  |  |  | 0.85 | 0.99 | 0.83 | 0.84 |  | -0.8 | 0.47 | 0.91 | -0.06 | 0.46 | 0.97 | Growth Rate (Fibroblast; 18 h, replicate number 2): 0.98; Growth Rate (U2OS; 18 h, replicate number 2): 0.93
CC(C)(C#Cc1ccc(NC(=O)COc2ccccc2C(=O)c2ccccc2)c(Cl)c1)C(=O)O [BI 2439] | 0.72 | 0.41 | 0.81 | 0.42 | 0.78 | 0.62 | 0.79 | 0.69 | -0.64 | 0.66 | 0.89 | 1 | 0.68 |  |  |  |  | -0.27 | 0.76 | 0.76 | Growth Rate (Fibroblast; 6 h, replicate number 1): 0.59; Growth Rate (Fibroblast; 18 h, replicate number 1): 0.92; Growth Rate (U2OS; 18 h, replicate number 2): 0.81
Cc1c(NC(=O)COc2ccc(Cl)cc2C(=O)c2cc(F)cc(C(F)(F)F)c2)ccc(C(=O)O)c1F [BI 2540] | 0.71 | 0.58 |  | 0.77 | 0.97 | 0.75 | 0.91 | 0.78 | -0.2 | 0.54 | 0.87 and 0.99 | 0.84 |  | 0.89 and 0.98 | 0.45 | 0.89 and 0.62 | 0.97 | 0.41 | -0.88 |  | Growth Rate (Fibroblast; 6 h, replicate number 1): 0.41; Growth Rate (Fibroblast; 6 h, replicate number 2): 0.6; Growth Rate (Fibroblast; 12 h, replicate number 1): 0.77; Growth Rate (Fibroblast; 18 h, replicate number 1): 0.85; Growth Rate (Fibroblast; 18 h, replicate number 2): 0.78; Growth Rate (U2OS; 0 h, replicate number 1): 0.29; Growth Rate (U2OS; 12 h, replicate number 1): 0.64; Growth Rate (U2OS; 18 h, replicate number 1): 0.91
O=C(NC[C@@H]1[C@H]2CN(C(=O)OCc3cc(C(F)(F)F)cc(C(F)(F)F)c3)C[C@@H]12)c1ccc2[nH]nnc2c1 [BI 2545] | -0.09 | -0.7 | 0.5 | 0.56 | 0.6 | 0.94 | 0.76 | 0.91 | -0.7 | 0.94 |  | 0.88 | -0.13 |  |  |  |  | -0.98 | -0.56 | 0.42 | Growth Rate (Fibroblast; 6 h, replicate number 1): 0.33; Growth Rate (Fibroblast; 6 h, replicate number 2): -0.08; Growth Rate (U2OS; 18 h, replicate number 2): 0.23
Cc1nccc(COC(=O)N2C[C@@H]3[C@@H](CNC(=O)c4ccc5[nH]nnc5c4)[C@@H]3C2)n1 [BI 3017] | 0.95 |  |  |  |  |  |  | 0.99 |  |  |  | 0.95 | 0.99 | 0.86 | 0.2 | 0.4 | 0.95 |  |  |  | Growth Rate (Fibroblast; 18 h, replicate number 1): 0.93; Growth Rate (Fibroblast; 18 h, replicate number 2): 0.73; Growth Rate (U2OS; 0 h, replicate number 1): 0.85
CCOC(=O)c1cc2cc(-c3cc(C(=O)NCc4ccc(C(=O)O)cc4)nn3C)ccc2[nH]1 [BI 4394] | 0.88 |  | 0.98 |  | 0.93 |  |  |  |  | 0.54 |  | 0.74 | 0.96 | 0.96 | 0.13 | 0.34 | 0.86 |  |  |  | Growth Rate (Fibroblast; 6 h, replicate number 2): 0.71; Growth Rate (Fibroblast; 18 h, replicate number 2): 0.7; Growth Rate (U2OS; 0 h, replicate number 1): 0.89; Growth Rate (U2OS; 18 h, replicate number 2): 0.99
Cn1nc(C(=O)NCc2ccc(C(=O)O)cc2)cc1-c1ccc2[nH]ccc2c1 [BI 4395] |  | 0.57 |  | 0.63 |  | 0.85 |  | 0.56 | -0.67 |  |  | 0.66 | 0.96 |  | -0.1 | 0.58 |  | 0.14 | 0.99 | 0.9 | 
Cn1c(C2(NC(=O)c3ccc(NCC4CCCCC4)nc3)CCC2)nc2ccc(/C=C/C(=O)O)cc21 [BI 7656] | 0.41 |  | 0.81 |  |  |  |  |  |  | 0.82 | 0.94 | 0.81 |  | 0.92 |  | -0.78 | 0.72 | 0.24 |  | 0.93 | Growth Rate (Fibroblast; 6 h, replicate number 2): -0.44; Growth Rate (U2OS; 0 h, replicate number 1): 0.79; Growth Rate (U2OS; 12 h, replicate number 1): 0.92
CS(=O)(=O)NCC[C@H](NC(=O)c1cncc2c1cnn2-c1ccc(F)cc1)c1ccnc(S(C)(=O)=O)c1 [BI 9307] |  |  |  |  |  |  | 1 |  | -0.94 |  |  | 0.83 | 0.91 |  | -0.12 | 0.23 |  |  | 0.9 |  | Growth Rate (Fibroblast; 0 h, replicate number 1): -0.98; Growth Rate (Fibroblast; 6 h, replicate number 1): 0.89; Growth Rate (Fibroblast; 12 h, replicate number 1): 0.91
C[C@@]1(Cc2ccc(C#N)cc2)C(=O)N(c2cc(Cl)cc(Cl)c2)c2ncc(C(=O)NC3(c4nc(C5CCC5)no4)CC3)n21 [BI 9446] | 0.51 |  | 0.15 | 0.74 | 0.2 | 0.52 | 0.21 | 0.48 | -0.17 | 0.12 | 0.4 | 0.76 | 0.61 | 0.67 | 0.53 |  | 0.41 | 0.34 | 1 | 0.94 | Growth Rate (Fibroblast; 0 h, replicate number 1): -1; Growth Rate (Fibroblast; 6 h, replicate number 1): 0.23; Growth Rate (Fibroblast; 6 h, replicate number 2): -0.58; Growth Rate (Fibroblast; 12 h, replicate number 1): 0.61; Growth Rate (Fibroblast; 18 h, replicate number 1): 0.41; Growth Rate (Fibroblast; 18 h, replicate number 2): 0.52; Growth Rate (U2OS; 12 h, replicate number 1): 0.77; Growth Rate (U2OS; 18 h, replicate number 1): 0.83; Growth Rate (U2OS; 18 h, replicate number 2): 0.75
CC(=O)N1CCC(c2ccc(C(=O)NC(=N)N)cc2C(F)(F)F)CC1 [BI 9627] |  | 0.69 |  | 0.65 |  | 0.77 |  | 0.92 |  | 0.57 | 0.8 | 0.3 | 0.96 | 1 | 0.72 |  | 0.76 | 0.44 |  | 0.92 | Growth Rate (Fibroblast; 18 h, replicate number 2): 0.95; Growth Rate (U2OS; 0 h, replicate number 1): 0.01; Growth Rate (U2OS; 12 h, replicate number 1): 0.75; Growth Rate (U2OS; 18 h, replicate number 1): 0.9
CCC(=O)N[C@H]1CC[C@@H](C(=O)N(C)c2ccc(-c3nc4ccccc4o3)cc2)C1 [BI 99179] | 0.1 | 0.11 | 0.1 | 0.26 | 0.31 | 0.51 | 0.51 | 0.69 | -0.49 |  | 0.79 | 0.68 | 0.65 | 0.86 |  |  |  |  |  | 0.96 | Growth Rate (Fibroblast; 6 h, replicate number 1): 0.53; Growth Rate (Fibroblast; 6 h, replicate number 2): 0.58; Growth Rate (Fibroblast; 12 h, replicate number 1): 0.5; Growth Rate (Fibroblast; 18 h, replicate number 1): 0.66; Growth Rate (Fibroblast; 18 h, replicate number 2): 0.98; Growth Rate (U2OS; 0 h, replicate number 1): 0.2; Growth Rate (U2OS; 12 h, replicate number 1): 0.89; Growth Rate (U2OS; 18 h, replicate number 1): 0.98; Growth Rate (U2OS; 18 h, replicate number 2): 0.87
CCC(=O)N[C@@H]1CC[C@H](C(=O)N(C)c2ccc(-c3nc4ccccc4o3)cc2)C1 [BI 99990] | -0.34 | 0.12 | 0.47 | 0.49 | 0.8 | 0.66 | 0.82 | 0.8 |  |  | 0.79 | 0.62 | 0.64 | 0.96 |  |  | 0.81 |  | 0.78 |  | Growth Rate (U2OS; 12 h, replicate number 1): 0.58
CS(=O)(=O)c1cc(C2(NC(=O)c3cncc4c3cnn4-c3ccc(F)cc3)CC2)ccn1 [BI 639667] | 0.52 |  | 0.77 |  | 0.9 |  | 1 |  | -0.75 | 0.97 |  | 0.64 | 0.76 |  |  | -0.17 |  |  |  |  | 
